Tests used:
Test in all cases: relative viability (nuclei count vs DMSO), 5 days (fraction); higher = more cells survive
Dovitinib + Alpelisib = compound: CN1CCN(c2ccc3nc(-c4c(N)c5c(F)cccc5[nH]c4=O)[nH]c3c2)CC1 [Dovitinib] + Cc1nc(NC(=O)N2CCC[C@H]2C(N)=O)sc1-c1ccnc(C(C)(C)C(F)(F)F)c1 [Alpelisib] (partner 2 µM)
How it was run: (§1)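 Relative viability was taken as the ratio of nuclei in treated wells to nuclei in vehicle wells. Lung cancer cell lines in 1536-well plates received compounds by pin tool one day after seeding, either one drug alone or a fixed anchor-drug dose plus five library-drug doses (not always all listed) in √10 steps. Nuclei were counted on 4× images after 5 days of treatment, and values are medians of duplicate plates.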

Dovitinib + Tozasertib = compound: CN1CCN(c2ccc3nc(-c4c(N)c5c(F)cccc5[nH]c4=O)[nH]c3c2)CC1 [Dovitinib] + Cc1cc(Nc2cc(N3CCN(C)CC3)nc(Sc3ccc(NC(=O)C4CC4)cc3)n2)n[nH]1 [Tozasertib] (partner 0.1 µM)
How it was run: as §1

Dovitinib + Dasatinib = compound: CN1CCN(c2ccc3nc(-c4c(N)c5c(F)cccc5[nH]c4=O)[nH]c3c2)CC1 [Dovitinib] + Cc1nc(Nc2ncc(C(=O)Nc3c(C)cccc3Cl)s2)cc(N2CCN(CCO)CC2)n1 [Dasatinib] (partner 0.075 µM)
How it was run: as §1

Dovitinib + Luminespib = compound: CN1CCN(c2ccc3nc(-c4c(N)c5c(F)cccc5[nH]c4=O)[nH]c3c2)CC1 [Dovitinib] + CCNC(=O)c1noc(-c2cc(C(C)C)c(O)cc2O)c1-c1ccc(CN2CCOCC2)cc1 [Luminespib] (partner 0.01 µM)
How it was run: as §1

| Cell Line | relative viability (Dovitinib + Alpelisib; first compound 0.02 µM) | relative viability (Dovitinib + Alpelisib; first compound 0.06325 µM) | relative viability (Dovitinib + Alpelisib; first compound 0.2 µM) | relative viability (Dovitinib + Alpelisib; first compound 0.6325 µM) | relative viability (Dovitinib + Alpelisib; first compound 2 µM) | relative viability (Dovitinib + Tozasertib; first compound 0.02 µM) | relative viability (Dovitinib + Tozasertib; first compound 0.06325 µM) | relative viability (Dovitinib + Tozasertib; first compound 0.2 µM) | relative viability (Dovitinib + Tozasertib; first compound 0.6325 µM) | relative viability (Dovitinib + Tozasertib; first compound 2 µM) | relative viability (Dovitinib + Dasatinib; first compound 0.02 µM) | relative viability (Dovitinib + Dasatinib; first compound 0.06325 µM) | relative viability (Dovitinib + Dasatinib; first compound 0.2 µM) | relative viability (Dovitinib + Dasatinib; first compound 0.6325 µM) | relative viability (Dovitinib + Dasatinib; first compound 2 µM) | relative viability (Dovitinib + Luminespib; first compound 0.02 µM) | relative viability (Dovitinib + Luminespib; first compound 0.06325 µM) | relative viability (Dovitinib + Luminespib; first compound 0.2 µM) | relative viability (Dovitinib + Luminespib; first compound 0.6325 µM) | relative viability (Dovitinib + Luminespib; first compound 2 µM) |
| --- | --- | --- | --- | --- | --- | --- | --- | --- | --- | --- | --- | --- | --- | --- | --- | --- | --- | --- | --- | --- |
| HCC-827 | 0.931 | 0.926 | 0.918 | 0.987 | 1.03 | 0.44 | 0.455 | 0.441 | 0.43 | 0.469 | 0.358 | 0.327 | 0.357 | 0.366 | 0.407 | 0.854 | 0.676 | 0.596 | 0.509 | 0.717 |
| HOP-62 | 0.804 | 0.844 | 1.27 | 0.896 | 0.829 | 0.316 | 0.401 | 0.346 | 0.384 | 0.424 | 0.643 | 0.601 | 0.64 | 0.632 | 0.662 | 0.888 | 1.03 | 0.868 | 0.89 | 0.931 |
| IA-LM | 0.732 | 0.78 | 0.854 | 0.911 | 0.765 |  |  |  |  |  |  |  |  |  |  |  |  |  |  |  |
| LC-2-ad | 0.873 | 0.833 | 0.728 | 0.8 | 0.74 | 0.563 | 0.487 | 0.465 | 0.369 | 0.498 | 0.661 | 0.524 | 0.55 | 0.514 | 0.429 | 0.991 | 0.994 | 1.01 | 0.979 | 0.995 |
| LCLC-97TM1 | 0.222 | 0.23 | 0.171 | 0.247 | 0.276 | 0.243 | 0.207 | 0.231 | 0.195 | 0.235 | 0.8 | 0.896 | 0.887 | 0.876 | 0.775 | 0.953 | 0.746 | 0.831 | 0.801 | 0.701 |
| LCLC-103H | 0.875 | 0.973 | 0.918 | 1.06 | 0.761 | 0.539 | 0.414 | 0.477 | 0.415 | 0.53 | 0.487 | 0.503 | 0.461 | 0.374 | 0.489 | 0.963 | 1 | 1.01 | 0.885 | 0.922 |
| LK-2 | 1.22 | 1.06 | 0.974 | 0.959 | 0.628 | 0.175 | 0.182 | 0.182 | 0.181 | 0.149 | 0.282 | 0.242 | 0.281 | 0.325 | 0.396 | 0.191 | 0.162 | 0.179 | 0.219 | 0.182 |
| LOU-NH91 | 0.818 | 0.73 | 0.714 | 0.75 | 0.765 | 0.708 | 0.659 | 0.611 | 0.678 | 0.776 | 0.586 | 0.553 | 0.549 | 0.64 | 0.574 | 0.322 | 0.308 | 0.335 | 0.327 | 0.349 |
| LU99A | 0.492 | 0.561 | 0.43 | 0.461 | 0.559 | 0.222 | 0.226 | 0.272 | 0.239 | 0.251 | 0.508 | 0.448 | 0.572 | 0.517 | 0.46 | 0.243 | 0.221 | 0.27 | 0.282 | 0.254 |

From the supplement of paper PMC10307832
